According to US9700056B2:

How the values were obtained:
[1] = test system: Sphaerotheca fuliginea; test: Sphaerotheca test (cucumbers)/preventive; conditions: evaluated 7 days after inoculation
Procedure: After the spray coating has dried on, the plants are inoculated with an aqueous spore suspension of Sphaerotheca fuliginea. The plants are then placed in a greenhouse at approximately 23° C. and a relative atmospheric humidity of approximately 70%.
The test is evaluated 7 days after the inoculation.

[2] = test system: Venturia inaequalis; test: Venturia test (apples)/preventive; conditions: Table A, preventive, evaluated 10 days after inoculation
Procedure: After the spray coating has dried on, the plants are inoculated with an aqueous conidia suspension of the causal agent of apple scab (Venturia inaequalis) and then remain for 1 day in an incubation cabinet at approximately 20° C. and a relative atmospheric humidity of 100%.
The plants are then placed in a greenhouse at approximately 21° C. and a relative atmospheric humidity of approximately 90%.
The test is evaluated 10 days after the inoculation.

[3] = test system: Botrytis cinerea; test: Botrytis test (beans)/preventive; conditions: Table D, preventive, application rate 10 ppm a.i., size of lesions 2 days after inoculation
Procedure: After the spray coating has dried on, 2 small pieces of agar covered with growth of Botrytis cinerea are placed on each leaf. The inoculated plants are placed in a darkened chamber at 20° C. and a relative atmospheric humidity of 100%.
2 days after the inoculation, the size of the lesions on the leaves is evaluated.

[4] = test system: Alternaria solani; test: Alternaria test (tomatoes)/preventive; conditions: Table C, preventive, application rate 50 ppm a.i., evaluated 3 days after inoculation
Procedure: After the spray coating has dried on, the plants are inoculated with an aqueous spore suspension of Alternaria solani. The plants are then placed in an incubation cabinet at approximately 20° C. and a relative atmospheric humidity of 100%.
The test is evaluated 3 days after the inoculation.

[5] = Table B2, preventive, application rate 2 ppm a.i.
[6] = Table B1, preventive, application rate 100 ppm a.i.

Question: What does the source list for `CC1COC(Cn2cncn2)(c2ccc(Oc3ccc(Cl)cc3)cc2Cl)O1` (stereo not shown) [F7 difenoconazole, difenoconazole]?
Answer: Efficacy in % found [1, 5]: 0%; Efficacy in % found ([2]; application rate 1 ppm a.i.): 20%

Question: How did the “Efficacy in % found” value [3] turn out when `CC1(C(=O)Nc2ccc(O)c(Cl)c2Cl)CCCCC1` [F16 fenhexamid, fenhexamid] was run?
Answer: The value was 88%.

Question: And the “Efficacy in % found” value [4]?
Answer: The value was 43%.

Question: What about the “Efficacy in % found” value [1, 6] of the same molecule?
Answer: The value was 33%.

Question: Which “Efficacy in % found” value [1, 5] does the source give for `OC(Cc1ccccc1Cl)(Cn1nc[nH]c1=S)C1(Cl)CC1` (stereo not shown) [F41 prothioconazole, prothioconazole] here?
Answer: Its value is 38%.

Question: For `CCCN(CC)CC1COC2(CCC(C(C)(C)C)CC2)O1` (stereo not shown) [F46 spiroxamine, spiroxamine], which “Efficacy in % found” value [4] is on record?
Answer: Its value is 62%.

Question: What about the “Efficacy in % found” value [1, 6] of the same molecule?
Answer: The value was 38%.

Question: `CC(C)(C)C(O)(CCc1ccc(Cl)cc1)Cn1cncn1` (stereo not shown) [F47 tebuconazole, tebuconazole] was tested. Which “Efficacy in % found” value [1, 5] did it give?
Answer: Its value is 29%.

Question: What about the “Efficacy in % found” value ([2]; application rate 2 ppm a.i.) of the same molecule?
Answer: Its value is 13%.
